Data as given in PubChem BioAssay AID1918935 (Molecular Pharmacology Branch, DTP, NCI, 2023).
“And” between values parts separate entries of the source, which are not always exact repeats. Equal entries are not always repeated.

System: 324938-238-R-J1-PDC complex spheroid viability
Assay: Anticancer human tumor 324938-238-R-J1-PDC patient-derived bladder carcinoma cell line growth inhibition
Details: for viability, T/C: stronger effect = lower value
Excerpt: Multicellular complex tumor spheroid response to LSD1 Inhibitor Iadademstat in combination with a variety of drugs and investigational agents in selected tumor cell lines
The current study was undertaken to assess response to LSD1 inhibitors in combination with standard-of-care drugs and investigational agents in solid tumor complex spheroid models as well as in the K-562 leukemia. Complex spheroids include a stromal component modeled by human endothelial cells (HUVEC) and fibroblasts modeled by human mesenchymal stem cells (MSCs). The concentration ranges selected for each drug and investigational agent were based upon clinically achievable concentrations if the clinical Cmax of the agent was known.
Compounds. The drugs and investigational agents used in this study are listed on Table 1. All of the agents used, including staurosporine (NSC755774) and gemcitabine (NSC613327), were obtained from the Developmental Therapeutics Program, NCI. FDA-approved anticancer drugs are available from the NCI at http://dtp.nci.nih.gov/branches/dscb/oncology_drugset_explanation.html. Drugs and investigational agents were >95% pure by proton nuclear magnetic resonance (NMR) and liquid chromatography/mass spectrometry (LC/MS). Stock solutions were prepared at 400x in DMSO, stored at -70 degrees C, and diluted in fresh medium prior to their use. The final concentration of DMSO in cell culture wells never exceeded 0.25% (v/v). The FDA-approved anticancer drug set is available from the Developmental Therapeutics Program at https://dtp.cancer.gov/organization/dscb/obtaining/available_plates.htm. All drugs and investigational agents were tested over a range starting from a high concentration at or near the clinical Cmax and decreasing in half-log increments. If the clinical Cmax for an agent had not been determined, the highest concentration tested was 10 microM.
Cell Lines. The patient-derived cancer cell (PDC) lines: 292921-168-R-J2-PDC, K24384-001-R-PDC, and 521955-158-R2-J5-PDC pancreatic carcinomas, 556581-035-R-J1 ovarian carcinoma, 324938-238-R-J1-PDC, 855422-203-R-J1-PDC and 883617-216-R-J1-PDC urothelial bladder carcinomas, 743489-274-T-PDC renal cell carcinoma, 138582-R-J1 Merkel cell tumor, K60290-347-R-J1 and K57222-313-R-J1-PDC glioblastomas, 653999-131-R-J2-PDC, LG0703-F948-PDC, and 349418-098-R-PDC non-small cell lung carcinomas, 885512-296-R-J2-PDC, 171881-019-R-J1-PDC breast carcinomas and 186277-243-T-J2-PDC and 233499-124-R-J2-PDC colon carcinomas were obtained from the NCI Patient-Derived Models Repository (PDMR, https://pdmr.cancer.gov). The established cell lines NCI/ADR-RES (RRID:CVCL_14520 and OVCAR-5 (RRID:CVCL_1628) ovarian carcinomas, 786-O (RRID:CVCL_1051) and A498 (RRID:CVCL_A498) renal cell carcinoma, NCI-H211 (ATCC, cat. CRL-5824; RRID:CVCL_1529), NCI-H196 (ATCC, cat. CRL-5823, RRID:CVCL_1509), SW 1271 (ATCC, cat. CRL-2177, RRID:CVCL_1716) and NCI-H1876 (ATCC, cat. CRL-5902, RRID:CVCL_1503) small cell lung carcinomas, MDA-MB-231 (RRID:CVCL_0062) and MDA-MB-468 (RRID:CVCL_0419)breast carcinomas (10-12). Pooled donor human umbilical vein endothelial cells (HUVEC, Lonza, cat. CC-2519) and human mesenchymal stem cells (hMSC, Lonza, cat. PT-2501) were purchased from Lonza (Walkersville, MD).
Cell Culture. All cells were maintained in an incubator at 37 degrees C and 5% CO2 with 95% humidity. The PDC lines were cultured according to standard operating procedures established by the NCI PDMR (https://pdmr.cancer.gov). Briefly all PDCs were thawed and cultured in Matrigel-coated flasks prepared with a working solution of 1X Ham's F-12 nutrient mix, without supplementation (Invitrogen, Waltham, MA, cat. 11765054), 100 U/mL penicillin-streptomycin (Invitrogen, cat. 15140122), and 2.5% Matrigel (Corning Inc., Corning, NY, cat. 354248) for the first three passages. […]

[1] = curve of first compound, second compound 0.1 µM
[2] = curve of first compound, second compound 0.316 µM
[3] = curve of first compound, second compound 1 µM
[4] = curve of first compound, second compound 3.16 µM
[5] = curve of first compound, second compound 10 µM
[6] = second compound 0.1 µM, first compound 0.00316 µM
[7] = second compound 0.1 µM, first compound 0.01 µM
[8] = second compound 0.1 µM, first compound 0.0316 µM
[9] = second compound 0.1 µM, first compound 0.1 µM
[10] = second compound 0.1 µM, first compound 0.316 µM
[11] = second compound 0.1 µM, first compound 1 µM
[12] = second compound 0.316 µM, first compound 0.00316 µM
[13] = second compound 0.316 µM, first compound 0.01 µM
[14] = second compound 0.316 µM, first compound 0.0316 µM
[15] = second compound 0.316 µM, first compound 0.1 µM
[16] = second compound 0.316 µM, first compound 0.316 µM
[17] = second compound 0.316 µM, first compound 1 µM
[18] = second compound 1 µM, first compound 0.00316 µM
[19] = second compound 1 µM, first compound 0.01 µM
[20] = second compound 1 µM, first compound 0.0316 µM
[21] = second compound 1 µM, first compound 0.1 µM
[22] = second compound 1 µM, first compound 0.316 µM
[23] = second compound 1 µM, first compound 1 µM
[24] = second compound 3.16 µM, first compound 0.00316 µM
[25] = second compound 3.16 µM, first compound 0.01 µM
[26] = second compound 3.16 µM, first compound 0.0316 µM
[27] = second compound 3.16 µM, first compound 0.1 µM
[28] = second compound 3.16 µM, first compound 0.316 µM
[29] = second compound 3.16 µM, first compound 1 µM
[30] = second compound 10 µM, first compound 0.00316 µM
[31] = second compound 10 µM, first compound 0.01 µM
[32] = second compound 10 µM, first compound 0.0316 µM
[33] = second compound 10 µM, first compound 0.1 µM
[34] = second compound 10 µM, first compound 0.316 µM
[35] = second compound 10 µM, first compound 1 µM
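Further: spheroids also contain HUVEC and human MSCs and agents combined with iadademstat; spheroids exposed to agents for 7 days before readout.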

Work on O=C(C=Cn1cnc(-c2cc(C(F)(F)F)cc(C(F)(F)F)c2)n1)NNc1cnccn1 + NC1CC1c1ccc(-c2cccc(O)c2)cc1 yielded an IC50 [1] of less than 3.16 nM, an IC50 [2] of less than 3.16 nM and an IC50 [3] of less than 3.16 nM. It also gave an IC50 [4] of less than 3.16 nM, an IC50 [5] of less than 3.16 nM and a viability, T/C [6] of 46%. For the same molecule, the viability, T/C [7] was 26.3%, the viability, T/C [8] was 14.1% and the viability, T/C [9] was 4.16%. It also gave a viability, T/C [10] of 3%, a viability, T/C [11] of 1.86% and a viability, T/C [12] of 42.2%. For the same molecule, the viability, T/C [13] was 27%, the viability, T/C [14] was 14.2% and the viability, T/C [15] was 5.76%. The viability, T/C [16] was 2.95%, the viability, T/C [17] was 1.73% and the viability, T/C [18] was 36.1%. The viability, T/C [19] was 25.1%, the viability, T/C [20] was 13.8% and the viability, T/C [21] was 5.75%. For the same molecule, the viability, T/C [22] was 2.87%, the viability, T/C [23] was 2.29% and the viability, T/C [24] was 38.3%. It also gave a viability, T/C [25] of 27.7%, a viability, T/C [26] of 15.4% and a viability, T/C [27] of 6%. For the same molecule, the viability, T/C [28] was 2.83%, the viability, T/C [29] was 2.25% and the viability, T/C [30] was 42.1%. It also gave a viability, T/C [31] of 30.2%, a viability, T/C [32] of 20.4% and a viability, T/C [33] of 11.6%. The viability, T/C [34] was 5.72% and the viability, T/C [35] was 2.7%.
In the case of CC1COCCN1c1cc(-c2ccnn2C)c2ccnc(-c3ccn[nH]3)c2n1 (stereo not given) + NC1CCC(NC2CC2c2ccccc2)CC1, the IC50 [1] is reported as 26 nM, the IC50 [2] is reported as 40.4 nM and the IC50 [3] is reported as 36.3 nM. It also gave an IC50 [4] of 25.8 nM, an IC50 [5] of 21.6 nM and a viability, T/C [6] of 88%. It also gave a viability, T/C [7] of 64.2%, a viability, T/C [8] of 49% and a viability, T/C [9] of 31.5%. It also gave a viability, T/C [10] of 17.3%, a viability, T/C [11] of 13.4% and a viability, T/C [12] of 76.9%. For the same molecule, the viability, T/C [13] was 80.9%, the viability, T/C [14] was 52.5% and the viability, T/C [15] was 31.2%. It also gave a viability, T/C [16] of 17.4%, a viability, T/C [17] of 15.2% and a viability, T/C [18] of 80.8%. It also gave a viability, T/C [19] of 73.2%, a viability, T/C [20] of 51.8% and a viability, T/C [21] of 31.2%. The viability, T/C [22] was 18.7%, the viability, T/C [23] was 14.8% and the viability, T/C [24] was 72.8%. It also gave a viability, T/C [25] of 59.6%, a viability, T/C [26] of 49.7% and a viability, T/C [27] of 31.8%. For the same molecule, the viability, T/C [28] was 19.9%, the viability, T/C [29] was 15.5% and the viability, T/C [30] was 72.3%. It also gave a viability, T/C [31] of 60.3%, a viability, T/C [32] of 44.7% and a viability, T/C [33] of 30.8%. For the same molecule, the viability, T/C [34] was 20.1% and the viability, T/C [35] was 14.3%.
In the case of NC1CCC(NC2CC2c2ccccc2)CC1 (stereo not given), the viability, T/C (compound 0.1 µM) is reported as 78.6% [middle of 25 runs], the viability, T/C (compound 0.316 µM) is reported as 86.7% and 75.8% and 76.6% and the viability, T/C (compound 1 µM) is reported as 75.9% [middle of 25 runs]. For the same molecule, the viability, T/C (compound 3.16 µM) was 73.6% [middle of 24 runs], the viability, T/C (compound 10 µM) was 72.2% [middle of 23 runs] and the IC50 (compound alone, run of 11/29/2021) was greater than 10000 nM.
For CC(C)c1c(-c2ccccc2)nc2c(C#N)c[nH]n2c1=O, the viability, T/C (compound 0.0316 µM) was 98.8% and 110%, the viability, T/C (compound 0.1 µM) was 108% and 110% and the viability, T/C (compound 0.316 µM) was 96.5% and 120%. For the same molecule, the viability, T/C (compound 1 µM) was 92.4% and 107%, the viability, T/C (compound 3.16 µM) was 89.5% and 95.7% and the viability, T/C (compound 10 µM) was 81.7% and 80.9%. For the same molecule, the IC50 (curve of compound) was greater than 10000 nM.
For COc1cc(C2c3cc4c(cc3C(OC3OC5COC(C)OC5C(O)C3O)C3COC(=O)C23)OCO4)cc(OC)c1O (stereo not given), the viability, T/C (compound 0.00949 µM) was 97.2% and 106%, the viability, T/C (compound 0.03 µM) was 84.8% and 76% and the viability, T/C (compound 0.0949 µM) was 34.7% and 35.1%. For the same molecule, the viability, T/C (compound 0.3 µM) was 20.9% and 20.7%, the viability, T/C (compound 0.949 µM) was 19.2% and 17.7% and the viability, T/C (compound 3 µM) was 8.35% and 8.98%. For the same molecule, the IC50 (curve of compound) was 67.5 nM and 63.9 nM.
For Cn1ncnc1C1c2n[nH]c(=O)c3cc(F)cc(c23)NC1c1ccc(F)cc1 (stereo not given) + NC1CC1c1ccc(-c2cccc(O)c2)cc1, the IC50 [1] was 37.8 nM, the IC50 [2] was 52.3 nM and the IC50 [3] was 46.1 nM. It also gave an IC50 [4] of 59.6 nM, an IC50 [5] of 59.8 nM and a viability, T/C (second compound 0.1 µM, first compound 0.000316 µM) of 82.2%. It also gave a viability, T/C (second compound 0.1 µM, first compound 0.001 µM) of 91%, a viability, T/C [6] of 78.1% and a viability, T/C [7] of 76.7%. It also gave a viability, T/C [8] of 50.8%, a viability, T/C [9] of 43.1% and a viability, T/C (second compound 0.316 µM, first compound 0.000316 µM) of 88.3%. It also gave a viability, T/C (second compound 0.316 µM, first compound 0.001 µM) of 65.7%, a viability, T/C [12] of 69.3% and a viability, T/C [13] of 61.9%. It also gave a viability, T/C [14] of 50%, a viability, T/C [15] of 47% and a viability, T/C (second compound 1 µM, first compound 0.000316 µM) of 70%. It also gave a viability, T/C (second compound 1 µM, first compound 0.001 µM) of 71.1%, a viability, T/C [18] of 66.4% and a viability, T/C [19] of 62.3%. The viability, T/C [20] was 53.8%, the viability, T/C [21] was 41.8% and the viability, T/C (second compound 3.16 µM, first compound 0.000316 µM) was 76.1%. The viability, T/C (second compound 3.16 µM, first compound 0.001 µM) was 73.1%, the viability, T/C [24] was 63.9% and the viability, T/C [25] was 63.1%. The viability, T/C [26] was 48.6%, the viability, T/C [27] was 49.2% and the viability, T/C (second compound 10 µM, first compound 0.000316 µM) was 64.1%. The viability, T/C (second compound 10 µM, first compound 0.001 µM) was 68%, the viability, T/C [30] was 64% and the viability, T/C [31] was 60.4%. The viability, T/C [32] was 47% and the viability, T/C [33] was 50%.
